Reference: patent EP2305268A1, “A PHARMACEUTICAL COMPOSITION FOR TREATING DISEASE CAUSED BY IMMUNE DISTURBANCE AND THE EXTRACT FROM TUCKAHOE” (Sinphar Tian-li Pharmaceutical Co., Ltd. (Hangzhou), priority 2008, dated 2009)
Values joined by “and” are separate entries in the source; they are usually repeats but may differ in a detail not shown here. Identical values can stand only once.

Assays:
Assay type in all cases: in vivo, BALB/c mice
[1] = tested on: immune cells in BALF of OVA-sensitized mice; assay: Percentage of subpopulations of immune cells in bronchoalveolar lavage fluid (BALF), Liu's stain cell count; conditions: % of total BALF cells, mean ± SD
Method: (§1) Mice in different groups were fed with a Poria extract or pure lanostane compound during the experimental period, and each mouse was subjected to an airway hyperresponsiveness test after one-month feeding, from which an important index reflecting the severe degree of the asthma of the mouse was determined. […] Further, a chemoattractant factor, Eotaxin, was an important observation factor in this example for observing whether the secretion of cytokines changed dramatically.
• (1) Experimental animal: Inbred BALB/c female mice were maintained by standard laboratory chow ad libitum. Room temperature was maintained at 19-24°C and relative humidity at 50-70%. Animal experiments were performed according to the Guidelines for the Care and Use of Laboratory Animals, Fu-Jen University, Taiwan. […] All mice were exposed to inhalate exposure to 8 ml of 2% OVA aerosols for a period of 20 minutes by placing them in a chamber using an ultrasonic nebulizer (DeVilbiss Pulmo-Aide, 5650D, USA), after receiving the second intraperitoneal injection. • (3) Grouping of the experimental animal: The 10 groups of OVA-sensitized asthmatic mice were separated into a non-treatment asthma group (As); treatment groups with the Poria extract prepared in Example 2 and pure compounds K1, K2 and K3 (1PCE, 1K1, 1K2, 1K3, 2PCE, 2K1, 2K2, and 2K3); and the control drug group (Pred). Each mouse in the treatment group of 1PCE group received daily 0.0372 mg of the ethanol extract PCE prepared in Example 2 (1PCE). 2PCE means mice were fed with two times of the dosage of PCE (0.0744 mg) of the 1PCE group. Each mouse in the treatment groups of 1K1, 1K2 and 1K3 received daily 0.0087 mg of K1, K2 and K3, respectively. 2K1, 2K2, and 2K3 mean mice werer fed with two times of the dosage of K1, K2 and K3 (0.0174 mg) in comparison with the 1K1, 1K2 and 1 K3 groups. Each mouse of the Pred group had been administrated with 0.1 mg of Prednisolone per day for 5 continuous days before the mouse was sacrificed. Above PCE, K1, K2, K3 and Prednisolone compounds were dissolved by 95% ethanol firstly, and finally in Phosphate Buffer Solution (PBS). Each mouse was administered 0.4 mL of total volume each time by gavage. • (4) Airway hyperresponsiveness test: An airway hyperresponsiveness (AHR) value increases proportionally with the severe degree of asthma, and thus a decrease of AHR value is an important index for determining whether asthma is being released. Each mouse in all groups was subjected to the AHR test next day following the 29th day of administering in the treatment groups on which the last inhalate exposure was conducted. The AHR was tested with Buxco system (Biosystem XA; Buxco Electronics Inc. Sharon, CT, USA), wherein the mouse was placed in a chamber, and aerosol of PBS or methacholine of different concentrations (25 mg/ml, and 50 mg/ml) was introduced into the chamber by using an ultrasonic nebulizer. Three minutes after the introduction an average value of AHR per minute was recorded. […] The value of Penh (pause of enhance) was calculated by collecting data derived from transducer (differential pressure transducer; Buxco) and preamplifier (MAX □, Buxco) in the system. The relative increase ratio of Penh was calculated as Penh% = Penhmethacholine/PenhPBS, wherein Penhmethacholine is the average value of Penh after the mice inhale 3 minutes of methacholine aerosol, and PenhPBS is the average value of Penh after the mice inhale 3 minutes of PBS aerosol. • (5) Bronchoalveolar lavage fluid (BALF) and lung histology: As all groups of mice had finished of AHR analysis, they were sacrificed on next day. The lung was immediately lavaged via the trachea cannula (18 GA, angiocath, B.D.) with 1 ml of Hank's balanced salt solution (HBSS, SH30016.01, Hyclone, USA), which contained 2% fetal bovine serum (FBS) and 2 mM 2Na-EDTA for three times. About 3 ml of BALF were collected.

[2] = tested on: OVA-sensitized asthmatic mice; assay: Airway hyperresponsiveness (AHR) test, Buxco system, Penh after methacholine aerosol
Method: as §1
(§2) • (1) Experimental animal: Inbred BALB/c female mice were maintained by standard laboratory chow ad libitum. Room temperature was maintained at 19-24°C and relative humidity at 50-70%. […] Three minutes after the introduction an average value of AHR per minute was recorded. […] The value of Penh (pause of enhance) was calculated by collecting data derived from transducer (differential pressure transducer; Buxco) and preamplifier (MAX □, Buxco) in the system. The relative increase ratio of Penh was calculated as Penh% = Penhmethacholine/PenhPBS, wherein Penhmethacholine is the average value of Penh after the mice inhale 3 minutes of methacholine aerosol, and PenhPBS is the average value of Penh after the mice inhale 3 minutes of PBS aerosol. • (5) Bronchoalveolar lavage fluid (BALF) and lung histology: As all groups of mice had finished of AHR analysis, they were sacrificed on next day. […]

[3] = tested on: Eotaxin; assay: Eotaxin level in BALF by Sandwich-ELISA; conditions: mean ± SD
Method: as §1, §2

[4] = Pred group: 0.1 mg Prednisolone per day for 5 continuous days before sacrifice
[5] = groups 1K1, 1K2, 1K3: 0.0087 mg per mouse daily by gavage
[6] = groups 2K1, 2K2, 2K3: 0.0174 mg per mouse daily by gavage

How did the Monocyte [1, 4] turn out when `C[C@]12C=CC(=O)C=C1CC[C@@H]1[C@@H]2[C@@H](O)C[C@@]2(C)[C@H]1CC[C@]2(O)C(=O)CO` [Pred, Prednisolone, reference compound] was run?
Its Monocyte is 13.3±7.8%.

And the Neutrophil [1, 4]?
Its Neutrophil is 0.8±0.8%.

And the “values of AHR in comparison with the As group” value [2, 4]?
The value was “lower values of AHR but not statistically significant”.

What does the source list for `C=C(CC[C@@H](C(=O)O)[C@H]1[C@H](O)C[C@@]2(C)C3=CC[C@H]4C(C)(C)C(=O)CC[C@]4(C)C3=CC[C@]12C)C(C)C` [K3]?
Eosinophil [1, 5]: 11.3±7.0%; Lymphocyte [1, 5]: 49.8±12.8%; Monocyte [1, 5]: 38.2±8.7%; Neutrophil [1, 5]: 0.8±0.9%; Eosinophil [1, 6]: 9.7±3.6%; Lymphocyte [1, 6]: 52.1±8.1%; Monocyte [1, 6]: 37.1±5.7%; Neutrophil [1, 6]: 1.1±1.1%; values of AHR in comparison with the As group ([2]; groups 1K1, 1K3: 0.0087 mg per mouse daily by gavage, methacholine 50mg/mL): significantly lower values ofAHR; Eotaxin [3, 5]: significantly lower levels of Eotaxin and 21.1±10.4 pg/mL; Eotaxin [3, 6]: 25.1 ± 12.0 pg/mL
